Entries after “also recorded” stand apart in the source; their conditions may differ. Values belong to the molecule of their own block, whether it stands above or below them.
Tests used:
[1] = molecular target: T1, recombinant mouse NAPE-PLD (Mus musculus, UniProt Q8BH82); assay: In vitro competition assay (LEI-401, VU233, VU534) on recombinant mouse Nape-pld; format: biochemical
T1 construct: hexahistidine (His6) (C); made in house; host or cells: E. coli
T1 sequence (Q8BH82 1-396): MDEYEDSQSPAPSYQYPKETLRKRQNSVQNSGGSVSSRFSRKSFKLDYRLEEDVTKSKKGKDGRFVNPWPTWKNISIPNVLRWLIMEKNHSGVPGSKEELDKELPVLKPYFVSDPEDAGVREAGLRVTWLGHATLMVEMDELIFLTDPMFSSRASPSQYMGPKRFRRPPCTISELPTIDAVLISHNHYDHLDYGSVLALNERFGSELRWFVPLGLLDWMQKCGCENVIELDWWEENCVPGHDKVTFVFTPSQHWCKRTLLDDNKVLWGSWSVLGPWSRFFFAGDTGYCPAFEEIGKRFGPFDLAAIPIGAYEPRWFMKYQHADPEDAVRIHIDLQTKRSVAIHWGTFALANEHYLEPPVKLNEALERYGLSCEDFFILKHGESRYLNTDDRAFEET
Experimental: A similar in vitro fluorescence Nape-pld activity assay was used for LEI-401 and VU233 competition assays except that this assay was performed using black-walled clear-bottom 96-well plates with 3.5 μM PED-A1 and no N-palmitoyl-dioleoyl-PE used as substrate and read in a BioTek Synergy H1 plate reader with the slope of the fluorescence signal from 0-4 min (linear phase) used as the assay readout. LEI-401, VU233, and VU534 were incubated for 1 h prior to addition of PED-A1. The Michaelis-Menten study used this same assay except with graded concentration of flame-NAPE.

[2] = system: bone marrow-derived macrophages (BMDM); assay: Efferocytosis assay with bone marrow-derived macrophages and apoptotic Jurkat cells; format: cell-based, mouse; settings: 10 μM, 6 h before assay
Experimental: Male C57BL6/j wild-type or Napepld^−/− mice were euthanized with isoflurane and hind legs were removed. Marrow was flushed from femurs and tibias using DMEM containing 4.5 g/L glucose and a 26-gauge needle. Cell suspensions were passed over a 40-μm filter, centrifuged at 500×g, and resuspended in 50 ml of DMEM containing 4.5 g/L glucose, 20% L-cell conditioned media, 10% heat-inactivated FBS, and 1% penicillin/streptomycin. 10 ml of cell suspension was plated into each of five 100-mm dishes and incubated for four days at 37° C. and 5% CO2. On day four, non-adherent cells and debris were aspirated from the plates and replaced with fresh media. After 7 days of differentiation, cells were harvested for use in experiments.
Assays were performed according to previously described protocols. See e.g., Doran et al. J. Clin. Invest. 127(11): 4075-4089 (2017); Proto et al., Immunity 49(4): 666-677 (2018). Bone marrow-derived macrophages were seeded at 0.25×10^6 cells/well in a non-tissue culture-treated 24-well plate and allowed to adhere overnight. Macrophages were treated with various compounds at a final concentration of 10 μM or DMSO as a vehicle for 6 hours prior to each experiment. Jurkat cells were exposed to UV light (254 nm) for 5 minutes to induce apoptosis and then incubated in a 37° C. incubator with 5% CO2 for 2 hours. Surveillance staining of these cells routinely yielded approximately 80-90% apoptosis (Annexin V+) using this method. Apoptotic Jurkat cells were labeled with either CellVue Claret (Millipore Sigma) or Cell Trace Violet (Invitrogen) per the manufacturer's instructions. After staining, cells were resuspended in macrophage medium at a density of […] and 500 μL of this suspension was added to the drug-containing media on the macrophages to achieve a cell ratio of 3:1 Jurkats: macrophages. After incubating for 45 minutes at 37° C. and 5% CO2, the medium was aspirated, and the macrophages were gently washed twice with PBS to remove unbound apoptotic cells. Macrophages were then removed from the plate using Cell Stripper (Sigma), washed, resuspended in staining buffer consisting of 2% FBS in PBS with 2 mM EDTA, and blocked with anti-mouse CD16/32 antibodies for 15 minutes on ice. After blocking, cells were pelleted and resuspended with F4/80. Cells were incubated for 45 minutes on ice in the dark, then washed and resuspended in staining buffer for analysis. Cells were analyzed using an Attune NxT cytometer (Thermo Fisher) and data were analyzed using FlowJo software to quantify the proportion of F4/80^+ macrophages that co-stained for apoptotic cells (% efferocytosis).

[3] = molecular target: T2, NAPE-PLD activity of RAW264.7 macrophages (Mus musculus, UniProt Q8BH82); assay: Cell-based NAPE-PLD activity in RAW264.7 macrophages (PED-A1 with orlistat); settings: with 20 μM VU534 (FIG. 17C)
T2 construct: endogenous in cells; host or cells: RAW264.7
T2 sequence (Q8BH82 1-396): T1 sequence (Q8BH82 1-396)
Experimental: (§1) NAPE-PLD activity was measured in cells as previously described, except that FluoroBrite DMEM (Gibco A1896701) was used as media. See Zarrow et al., J. Lipid Res. 63(1): 100156 (2022). For RAW264.7 assays, PED-A1 (3.6 μM final) was used as the substrate with 10 μM orlistat added to inhibit PLA1 activity, while for HepG2 cells, flame-NAPE was used (with no orlistat added).

[4] = molecular target: T3, NAPE-PLD activity of HepG2 cells (Homo sapiens, UniProt Q6IQ20); assay: Cell-based NAPE-PLD activity in HepG2 cells (flame-NAPE); settings: 10 μM
T3 construct: endogenous in cells; host or cells: HepG2
T3 sequence (Q6IQ20 whole entry): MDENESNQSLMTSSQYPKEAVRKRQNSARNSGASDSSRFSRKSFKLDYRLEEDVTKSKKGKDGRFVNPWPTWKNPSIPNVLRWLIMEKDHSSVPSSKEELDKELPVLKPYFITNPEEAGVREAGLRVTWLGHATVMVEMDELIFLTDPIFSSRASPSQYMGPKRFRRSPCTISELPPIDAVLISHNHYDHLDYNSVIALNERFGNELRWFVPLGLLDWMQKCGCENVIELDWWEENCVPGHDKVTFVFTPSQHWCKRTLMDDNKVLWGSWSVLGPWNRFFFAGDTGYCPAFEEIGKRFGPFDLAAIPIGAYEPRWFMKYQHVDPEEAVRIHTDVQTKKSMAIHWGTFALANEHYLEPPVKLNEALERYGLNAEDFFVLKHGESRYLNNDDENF
Experimental: In vitro models of the hepatic steatosis of non-alcoholic fatty liver disease (NAFLD) are well-established, with the primary method being incubation of primary human hepatocytes or hepatocyte cell lines such as HepG2, HuH7, HepaRG, with oleic acid and palmitic acid for 24 to 48 h, then measuring the resulting steatosis, lipid peroxidation, apoptosis, and inflammatory gene expression. Using flame-NAPE to measure NAPE-PLD activity in the human hepatoma HepG2 cell line, the experimental data confirmed that VU534 activated NAPE-PLD in human cells (AC50 940 nM; max % bA 155%). Bithionol (10 μM) reduced HepG2 flame-NAPE hydrolysis by >67%.
as §1

[5] = molecular target: T4, NAPE-PLD activity in primary BMDMϕ (Mus musculus, UniProt Q8BH82); assay: NAPE-PLD activity in primary bone marrow derived macrophages; format: cell-based; settings: VU534 at 10 μM (FIG. 5)
T4 construct: endogenous in cells; host or cells: primary bone-marrow-derived macrophages (C57BL6/j mice)
T4 sequence (Q8BH82 1-396): T1 sequence (Q8BH82 1-396)

inhibition of mouse NAPE-PLD activity at 100 μM ([1]; 100 μM): nearly complete inhibition
Structure (SMILES): O=C(NCC1CC1)c1cc(N2CC[C@H](O)C2)nc(N2CCC[C@@H](c3ccccc3)C2)n1 [LEI-401, reference compound]
inhibition of mouse NAPE-PLD activity ([1]; graded concentrations (FIG. 19C)): inhibited mouse NAPE-PLD activity in a concentration-dependent manner

Structure (SMILES): O=C(O)CCCCCCCCCCCNC(=O)NC12CC3CC(CC(C3)C1)C2 [AUDA, 12-[[(tricyclo[3.3.1.13,7]dec-1-ylamino)carbonyl]amino]-dodecanoic acid, reference compound]
effect on efferocytosis by wild-type BMDM [2]: Neither AUDA nor TPPU significantly enhanced efferocytosis

Structure (SMILES): CCC(=O)N1CCC(NC(=O)Nc2ccc(OC(F)(F)F)cc2)CC1 [TPPU, N-[1-(1-Oxopropyl)-4-piperidinyl]-N′-[4-(trifluoromethoxy)phenyl]urea, reference compound]
effect on efferocytosis by wild-type BMDM [2]: Neither AUDA nor TPPU significantly enhanced efferocytosis

reduction of HepG2 flame-NAPE hydrolysis [4]: > 67%
effect on NAPE-PLD activity in primary BMDM [5]: inhibits NAPE-PLD activity
Structure (SMILES): Oc1c(Cl)cc(Cl)cc1Sc1cc(Cl)cc(Cl)c1O [bithionol, reference compound]
effect on increase in RAW264.7 NAPE-PLD activity induced by 20 μM VU534 [3]: blocked in a concentration-dependent manner; also recorded: blocks increased Nape-pld activity
effect on efferocytosis by wild-type BMDM [2]: markedly reduced efferocytosis
effect on efferocytosis by wild-type BMDM ([2]; listed as Bith): reduced efferocytosis
